In patent publication US20200261391A1, “METHODS OF REDUCING THE RISK OF A CARDIOVASCULAR EVENT IN A STATIN-TREATED SUBJECT BY INCREASING SERUM AND PLASMA EPA AND DPA LEVELS” (Amarin Pharmaceuticals Ireland Limited, priority 2019, published 2020):

Tests used:
[1] = system: patients with elevated triglyceride levels on statin therapy; assay: REDUCE-IT endpoints by EPA blood level tertile in the icosapent ethyl group compared to placebo; type: in vivo, human
Description: To assess the relationship between on-treatment hsCRP and the primary and key secondary endpoints, subgroup analyses were carried out as done for the ITT population for patients grouped according to values greater or equal to or less than […] at baseline and at 2 years. To assess the relationship between on-treatment serum EPA and the primary and key secondary endpoints, Kaplan-Meier (KM) curves were produced for AMR101 treated patients grouped into tertiles based on their values at year 1 and were compared with the placebo-treated patients.
This is a study aimed towards determining a relative risk reduction (RRR) between subjects stratified by EPA tertiles in the REDUCE-IT clinical trial described above in Example 1. Samples were obtained from those subjects and total EPA and AA levels in human serum and plasma samples were determined according at least to the methods described in Example 7.
The objective of this study is to assess the effects of administering icosapent ethyl at 4 g per day to patients from the REDUCE-IT trial of Example 1. More specifically, patients from the REDUCE-IT trial of Example 1 were stratified by their EPA levels into one of three tertiles. Following stratification, the objective was to determine if the RRR differs between patients having EPA levels in the three different tertiles. For the data collected as shown in Tables 38-43 and FIGS. 52, 53, and 56-59, the tertiles were established based on data collected from subjects at 1 year, 2 years, and last visit following icosapent ethyl administration compared to placebo. Data are presented as an average of 1 year, 2 year, […], and end of study values. The data was further analyzed use both pooled and unpooled statistically methods.

[2] = system: patients with elevated triglyceride levels on statin therapy; assay: REDUCE-IT recurrent and total ischemic events (Example 2; Andersen-Gill and Wei-Lin-Weissfeld models); type: in vivo, human; settings: for total key secondary endpoint events, HR / total key secondary endpoint events, number: without adjustment for stratification differences
From the text: The following study was a multi-center, placebo-controlled clinical trial the details of which are described above in Example 1, the REDUCE-IT design. […] Randomization was stratified by cardiovascular risk cohort (i.e., secondary or primary prevention), use of ezetimibe, and by geographic region.
The primary outcome for the study was total recurrent events consisting of the composite of cardiovascular death, nonfatal myocardial infarction, nonfatal stroke, coronary revascularization, or hospitalization for unstable angina. Recurrent event analyses were also performed for the key secondary endpoint, a composite of cardiovascular death, non-fatal myocardial infarction, or non-fatal stroke. For each of these composite endpoints, the effects of icosapent ethyl in the secondary and primary prevention strata were examined separately.
Demographic and baseline disease characteristics are presented using frequencies and percentages for categorical variables and medians with interquartile ranges for continuous variables. Between treatment group comparisons were derived using the chi-square test for categorical variables and Wilcoxon rank test for continuous variables. All clinical endpoint events used in the efficacy analyses were adjudicated by an independent Clinical Endpoint Committee (CEC) who were blinded to the treatment assignment. Since the primary efficacy endpoint was the time from randomization to the first occurrence of any component of the composite endpoint, and recurrence of such events within each patient is possible, a pre-specified analysis using a Cox proportional-hazard with the counting-process formulation of Andersen and Gill was performed to model the first and all recurrent cardiovascular events. Hazard ratios (HR) and corresponding 95% confidence intervals (CI) are reported from this model. In addition, as a marginal model and an extension of survival models based on the Cox proportional hazard model, the modified Wei-Lin-Weissfeld (WLW) method for analysis of recurrent events in the presence of deaths was carried out as a supportive analysis. In addition, as pre-specified, a recurrent event analysis using the Andersen-Gill and Wei-Lin-Weissfeld methods were carried out for the individual primary event components other than CV death. Though not pre-specified, additional recurrent event analyses were performed for the key secondary endpoint, which is a composite of CV death, non-fatal MI, or non-fatal stroke, and for the primary endpoint and the key secondary endpoint in the primary and secondary prevention strata to explore further the consistency of clinical benefit of icosapent ethyl. In subgroup analyses of the two cardiovascular risk strata (i.e., primary and secondary prevention), site-level discrepancies in cardiovascular risk group assignment occurring at entry and detected during the study (1.8%) were adjusted to conform with documented medical history data prior to randomization. All efficacy analyses were performed according to the intention-to-treat principle. All tests were based on a 2-sided nominal significance level of 5% with no adjustments for multiple comparisons.

[3] = EPA >189 μg/mL, on-treatment average of year 1, year 2, last visit
[4] = EPA >114.7 to ≤189 μg/mL, on-treatment average of year 1, year 2, last visit
[5] = EPA ≤114.7 μg/mL, on-treatment average of year 1, year 2, last visit
[6] = Wei-Lin-Weissfeld model, vs placebo
[7] = per 100 patients treated for five years

Question: What does the source list for `CC/C=C\C/C=C\C/C=C\C/C=C\C/C=C\CCCC(=O)OCC` [icosapent ethyl, eicosapentaenoic acid ethyl ester]?
Answer: key secondary endpoint HR, highest EPA tertile vs. placebo ([1]; EPA >189 μg/mL): 0.65; primary endpoint HR, highest EPA tertile vs. placebo ([1]; EPA >189 μg/mL): 0.65; HR (95% CI), Key Secondary Endpoint, Highest EPA tertile vs Placebo [1, 3]: 0.65 (0.54, 0.80); HR (95% CI), Primary Endpoint, Highest EPA tertile vs Placebo [1, 3]: 0.65 (0.55, 0.76); key secondary endpoint HR, middle EPA tertile vs. placebo ([1]; EPA >114.7 to ≤189 μg/mL): 0.65; primary endpoint HR, middle EPA tertile vs. placebo ([1]; EPA >114.7 to ≤189 μg/mL): 0.72; HR (95% CI), Key Secondary Endpoint, Middle EPA tertile vs Placebo [1, 4]: 0.65 (0.53, 0.79); HR (95% CI), Primary Endpoint, Middle EPA tertile vs Placebo [1, 4]: 0.72 (0.62, 0.85); key secondary endpoint HR, lowest EPA tertile vs. placebo ([1]; EPA blood level ≤114.7 μg/mL): 0.89; primary endpoint HR, lowest EPA tertile vs. placebo ([1]; EPA blood level ≤114.7 μg/mL): 0.84; HR (95% CI), Key Secondary Endpoint, Lowest EPA tertile vs Placebo [1, 5]: 0.89 (0.74, 1.07); HR (95% CI), Primary Endpoint, Lowest EPA tertile vs Placebo [1, 5]: 0.84 (0.72, 0.98); primary composite endpoint HR, highest EPA tertile vs. placebo ([1]; FIG. 53, ITT, EPA >190.55 μg/mL): 0.63; primary composite endpoint HR, middle EPA tertile vs. placebo ([1]; FIG. 53, ITT, EPA >116.9 to ≤190.55 μg/mL): 0.74; primary composite endpoint HR, lowest EPA tertile vs. placebo ([1]; FIG. 53, ITT, EPA ≤116.9 μg/mL): 0.85; first events, reduction ([2]; Example 2): 25%; second events, reduction ([2]; Example 2): 28%; third or more events, reduction ([2]; Example 2): 50%; total events for primary composite efficacy outcome, relative risk reduction ([2]; Example 2): 32%; first occurrence of primary composite endpoint, HR [2, 6]: 0.75; second occurrence of primary composite endpoint, HR [2, 6]: 0.72; additional primary endpoint events, total reduction vs placebo (number) ([2]; in vivo): 179; first primary endpoint events, total reduction vs placebo (number) ([2]; in vivo): 196; second primary endpoint events, total reduction vs placebo (number) ([2]; in vivo): 164; total primary endpoint events, number ([2]; overall trial, placebo 1,724): 1,185; total key secondary endpoints, number ([2]; overall, placebo 861): 590; total key secondary endpoints, HR ([2]; overall, vs placebo): 0.71; cardiovascular deaths prevented [2, 7]: 1; coronary revascularizations prevented [2, 7]: 8; episodes of unstable angina prevented [2, 7]: 2; myocardial infarctions prevented [2, 7]: 4; strokes prevented [2, 7]: 1; additional primary endpoint events, number ([2]; placebo 360): 131; second primary endpoint events, number ([2]; placebo 463): 299; first primary endpoint events, number ([2]; placebo 901): 705; total key secondary endpoints, HR ([2]; primary prevention stratum): 0.71; total primary endpoint events, HR ([2]; primary prevention stratum, adjusted stratification): 0.79; total primary endpoint events, number ([2]; primary prevention stratum, adjusted stratification, placebo 256): 197; total primary endpoint events, HR ([2]; primary prevention stratum, without adjusting for stratification differences): 0.86; total primary endpoint events, number ([2]; primary prevention stratum, without adjusting for stratification differences, placebo 263): 221; total key secondary endpoint events, HR ([2]; primary prevention): 0.78; total key secondary endpoint events, number ([2]; primary prevention, placebo 142): 112; total key secondary endpoints, HR ([2]; secondary prevention stratum): 0.70; total primary endpoint events, HR ([2]; secondary prevention stratum, adjusted stratification): 0.66; total primary endpoint events, number ([2]; secondary prevention stratum, adjusted stratification, placebo 1,468): 988; total primary endpoint events, HR ([2]; secondary prevention stratum, without adjusting for stratification differences): 0.65; total primary endpoint events, number ([2]; secondary prevention stratum, without adjusting for stratification differences, placebo 1,461): 964; total key secondary endpoint events, HR ([2]; secondary prevention stratum): 0.69; total key secondary endpoint events, number ([2]; secondary prevention stratum, placebo 671): 478; total primary endpoint events, HR ([2]; vs placebo, overall trial): 0.68
